Source: patent US20120302526A1, “METHODS FOR TREATING POST-TRAUMATIC STRESS DISORDER” (Regents of the University of Colorado, a body corporate, priority 2011, published 2012)

Tests used:
[1] = system: TBI induced anxiety-like behavior (LFPI animals); experiment: Freezing in test chamber after immediate shock, peri-injury MN166 (Example 3, FIG. 4B); type: in vivo, rats; conditions: 1 and 3 months post-injury, untreated LFPI approximately 60% (p<0.003 and 0.0001)
Description: Animals with LFPI froze approximately 3-4 times longer (30-40%) than Naïve animals (<10%) when placed in the test chamber (FIG. 4A). […] However, LFPI animals froze substantially more (approximately 60%) after shock compared to LFPI animals receiving no shock (30-35%; p<0.001 and 0.003, respectively). […] LFPI animals consistently froze more than all other groups, at all time points, with or without shock. […] However, by 3 months this difference was no longer significant (p<0.493).

[2] = system: TBI induced anxiety-like behavior (LFPI rats); experiment: Freezing in shock chamber after fear conditioning, peri-injury ibudilast (Example 2, FIG. 2); type: in vivo; conditions: 10 mg/kg in corn oil, 5 days (2 days before LFPI, day of LFPI, 2 days after); 1 and 3 months post-injury
Protocol: All animals were fear conditioned by receiving shock (1.5 mA; 3-sec) immediately upon being placed in an experimental chamber. Freezing behavior was then measured the following day upon being replaced in the same chamber. Naïve (no surgical procedures) and Sham (LFPI surgery without pressure pulse) froze at a typical rate of approximately 15-20% when measured at 1 and 3 months post-injury (FIG. 2). In contrast, cohorts who received LFPI froze approximately 3 times as long at both time points.

[3] = system: TBI induced anxiety-like behavior (LFPI rats); experiment: Freezing in a novel context after LFPI and foot shock, post-injury ibudilast (Example 1, FIG. 1); type: in vivo, Sprague-Dawley rats
Protocol: Twenty-four adult viral-free male Sprague-Dawley rats (275-325 g; Harlan Laboratories, Madison, Wis.) were housed in pairs in temperature (23±3° C.) and light (12:12 light:dark) controlled rooms with ad libitum access to food and water. All procedures were performed in accordance with University of Colorado Institutional Animal Care and Use Committee guidelines for the humane use of laboratory rats in biological research. Rats were randomly assigned to 1 of 4 groups (n=6/group; Sham-operated/vehicle-injected, Sham-operated/ibudilast-injected, LFPI/vehicle-injected, LFPI/ibudilast-injected). All rats were shocked approximately 2 weeks following LFPI to enhance freezing behavior in a novel context (a natural fear reaction in this species). After freezing behavior had been established (1 month post-injury) animals were subjected to a 5-day regimen of ibudilast or vehicle (corn oil) injections (once daily for 5 days). Freezing behavior was again assessed at 2 weeks, 1 month, 2 months, and at 3 months post-injection. Lateral Fluid Percussion Injury. LFPI rats were anesthetized with halothane (4% induction, 2.0-2.5% maintenance) and mounted in a stereotaxic frame. The lateral fluid percussion injury used in this study utilized a PV820 Pneumatic PicoPump (World Precision Instruments, Inc., Sarasota, Fla.) to deliver standardized pressure pulses of air to a standing column of fluid. A 3.0 mm diameter craniotomy was centered at 3 mm caudal to bregma and 4.0 mm lateral of the sagittal suture, with the exposed dura remaining intact. A female Luer-Loc hub (inside diameter of 3.5 mm) was secured over the craniotomy with cyanoacrylate adhesive. Following hub implantation, the animal was removed from the stereotaxic frame and connected to the LFPI apparatus. […] Weight was recorded prior to each dosing. […] Rats were tested (5 minutes) and the percent of freezing behavior was assessed. Freezing was defined as the absence of movement except for heart beat/respiration, and was recorded in 10 sec intervals. Statistical Analyses: Results are expressed as mean±SEM. […]

[4] = system: TBI induced anxiety-like behavior (LFPI animals); experiment: Freezing in a novel context, shock at 1 month post-injury, peri-injury MN166 (Example 3, FIG. 3B); type: in vivo, rats; conditions: 10 mg/kg s.c. 5 days peri-injury
Description: Freezing behavior in rats was elicited substantially in the manner described before. When freezing behavior was made the dependent variable after placement in a novel context, large and stable differences between Naïve and LFPI animals were seen (FIG. 3). LFPI animals froze approximately 20-40% of the time compared to 5-10% for Naïve animals (FIG. 3A). Increased freezing behavior in LFPI compared to Naïve animals was significant at all time points (p<0.001). […] These animals included Naïve and LFPI groups as in FIG. 3A, but also LFPI+MN166 (Animals received a 5-day dosing regimen in which they received once-daily ibudilast injections 24 hr prior to LFPI, the day of surgery and LFPI, and 3 days following LFPI (10 mg/kg, 1 ml/kg subcutaneously in corn oil)) and a Sham surgery group. Overall, LFPI animals froze substantially more than Naïve, LFPI+MN166, and Sham groups at the 1, 2 and 3 month time points (p<0.001). Similar to the animals of FIG. 3A, at 2 weeks and 1 month post-injury, LFPI animals froze approximately 20-30% of the time in the novel context compared to approximately 5% for Naïve animals (p<0.001).

With `CC(C)C(=O)c1c(C(C)C)nn2ccccc12` [Ibudilast, 2-Methyl-1-[2-(1-methylethyl)pyrazolo[1,5-a]pyridin-3-yl]-1-propanone] the “percent freezing in test chamber after shock” value [1] was 25-35%, the “freezing behavior vs LFPI animals receiving vehicle injections” value [2] was “substantially less” and the “freezing behavior of treated LFPI rats vs untreated LFPI rats” value ([3]; LFPI rats, 10 mg/kg s.c. once daily for 5 days at 1 month post-injury, up to 3 months post-treatment, p<0.01) was “froze substantially less”. The “freezing compared to untreated injured animals” value ([3]; LFPI rats, 10 mg/kg s.c. once daily for 5 days, started 1 month post-injury, P<0.05) was “about 60%”, the “influence on freezing of control animals” value ([3]; Sham-operated rats, 10 mg/kg s.c. once daily for 5 days, all post-injection time-points) was “no influence on control animals” and the “percent freezing in novel context” value ([4]; 3 months post-injury, untreated LFPI 50%, Naïve 8%, Sham 10%) was 14%. For the same compound, the “freezing compared to untreated LFPI animals, novel context” value ([4]; significant at 1, 2 and 3 months post-injury (p<0.01, 0.001, 0.0001)) was “greatly reduced freezing”.
